The text below walks through data of US5234815A, “Monoclonal antibodies against cytosolic thyroid hormone binding protein” (The United States of America as represented by the …, priority 1991, dated 1993).

The target of one assay is T1, p58 (Homo sapiens, UniProt P14618).
T1 construct: endogenous in cells; host or cells: A431 cells
Kind of assay: T3 binding in subcellular fractions of A431 cells. The conditions noted are these: for Specific [125I]T3 bound: 50 ug protein. As for the experimental part:
Overnight cultures of A431 cells (1×10^7 cells/150 mm dish) were washed with 30 ml of PBS (Ca^++ and Mg^++ free). Cells were harvested with a rubber policeman and pelleted. The cell pellet was resuspended in 2 ml of homogenization buffer (0.25M sucrose, 20 mM Tris, 1.1 mM MgCl2, pH 7.85) and homogenized in a tight dounce homogenizer. After centrifugation at 800 xg for 10 min, the supernatant was further centrifuged at 110,000 xg for 90 min at 4° C. (supernatant A). The pellet was resuspended by pipetting in 1 ml of the homogenizing buffer. The suspension was centrifuged at 110,000 xg for 90 min (supernatant B). The pellet was extracted with 1 ml of 3 mM CHAPS by stirring for 30 min. The suspension was centrifuged at 110,000 xg for 90 min (supernatant C).

The target in a further assay is T2, purified p58 (Homo sapiens, UniProt P14618).
T2 construct: p 58 was purified from A431 cells; endogenous in cells; host or cells: A431 cells (purified native protein)
Kind of assay: Binding of [125I]T3 and analogs to purified p58. The settings on record: competition with [125I]T3, equilibrium conditions. As for the experimental part: Binding data were analyzed by least squares analysis as described in Horiuchi et al, supra.

T1 sequence (P14618 2-531 limits assumed): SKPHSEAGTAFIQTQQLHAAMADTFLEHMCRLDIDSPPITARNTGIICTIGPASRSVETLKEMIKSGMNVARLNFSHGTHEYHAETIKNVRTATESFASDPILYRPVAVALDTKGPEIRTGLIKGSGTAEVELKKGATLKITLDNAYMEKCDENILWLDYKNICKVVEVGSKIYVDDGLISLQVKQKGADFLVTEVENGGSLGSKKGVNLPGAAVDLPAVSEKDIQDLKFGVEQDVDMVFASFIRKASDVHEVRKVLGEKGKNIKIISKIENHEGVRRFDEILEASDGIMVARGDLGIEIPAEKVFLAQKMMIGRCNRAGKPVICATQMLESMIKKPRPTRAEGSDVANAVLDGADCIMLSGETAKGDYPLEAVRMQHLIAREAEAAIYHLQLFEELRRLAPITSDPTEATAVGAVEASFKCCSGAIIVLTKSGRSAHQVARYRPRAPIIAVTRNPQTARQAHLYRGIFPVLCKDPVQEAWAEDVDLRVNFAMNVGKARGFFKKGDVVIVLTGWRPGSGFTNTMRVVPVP
T2 sequence (P14618 whole entry): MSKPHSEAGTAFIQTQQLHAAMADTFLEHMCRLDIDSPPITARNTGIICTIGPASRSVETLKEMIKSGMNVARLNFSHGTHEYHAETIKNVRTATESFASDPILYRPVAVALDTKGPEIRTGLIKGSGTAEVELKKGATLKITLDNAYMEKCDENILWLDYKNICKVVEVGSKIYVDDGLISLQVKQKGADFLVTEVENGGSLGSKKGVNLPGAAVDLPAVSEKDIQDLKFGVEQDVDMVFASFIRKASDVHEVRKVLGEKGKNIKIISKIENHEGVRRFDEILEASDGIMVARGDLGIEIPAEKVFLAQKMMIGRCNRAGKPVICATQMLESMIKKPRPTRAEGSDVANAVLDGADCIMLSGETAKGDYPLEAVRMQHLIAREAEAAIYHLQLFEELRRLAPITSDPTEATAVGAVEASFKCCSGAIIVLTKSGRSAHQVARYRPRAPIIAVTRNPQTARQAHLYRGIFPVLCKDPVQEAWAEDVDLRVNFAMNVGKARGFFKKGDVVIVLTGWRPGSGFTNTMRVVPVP

Turning to `N[C@@H](Cc1cc(I)c(Oc2ccc(O)c(I)c2)c(I)c1)C(=O)O` [[^125 I]T3], at p58 (110,000 xg Pellet), the “Specific [125I]T3 bound, % of total” value is recorded as 6 % of total and the “Specific [125I]T3 bound” value is recorded as 0.17 dpm(× 10^-4). For the same molecule, at p58 (110,000 xg Supernatant), the “Specific [125I]T3 bound, % of total” value is recorded as 94 % of total and the “Specific [125I]T3 bound” value was 2.5 dpm(× 10^-4).

Consider `N[C@@H](Cc1ccc(Oc2cc(I)c(O)c(I)c2)c(I)c1)C(=O)O` [reverse-T3], for which the “affinity for p58, fold less than that of T3” value on purified p58 worked out at 10 fold.

As for `N[C@@H](Cc1cc(I)c(Oc2cc(I)c(O)c(I)c2)c(I)c1)C(=O)O` [T4], the “affinity for p58 compared with T3” value on purified p58 is recorded as “affinity similar to that of T3”.
